ChEMBL document CHEMBL4130371, “Norepinephrine alkaloids as antiplasmodial agents: Synthesis of syncarpamide and insight into the structure-activity relationships of its analogues as antiplasmodial agents” (Eur J Med Chem, 2017)

Assays:
[1] = Selectivity index, ratio of CC50 for African green monkey Vero cells to IC50 for chloroquine-sensitive Plasmodium falciparum 3D7; assay type: toxicity; details: read-out: Ratio CC50/IC50
Plasmodium falciparum [2] = test: Antiplasmodial activity against chloroquine-sensitive Plasmodium falciparum 3D7 measured after 72 hrs by SYBR green 1 dye based fluorescence assay; assay type: functional, organism-based; details: 3D7, 72 h
Plasmodium falciparum [3] = test: Antiplasmodial activity against chloroquine-resistant Plasmodium falciparum K1 measured after 72 hrs by SYBR green 1 dye based fluorescence assay; assay type: functional, organism-based; details: K1, 72 h
[4] = Cytotoxicity against African green monkey Vero cells assessed as reduction in cell viability after 72 hrs by MTT assay; assay type: cell-based; details: chlorocebus sabaeus

SMILES | selectivity ratio [1] | IC50 (Plasmodium falciparum [2]) | IC50 (Plasmodium falciparum [3]) | CC50 at 72 h [4]
CCCC(=O)O[C@H](CNC(=O)/C=C/c1ccccc1)c1ccc(OC)c(OC)c1 | < 2.98 | > 10 µM | > 10 µM | 29.9 µM
COc1ccc([C@@H](CNC(=O)/C=C/c2ccccc2)OC(=O)CCc2ccccc2)cc1OC | < 3.69 | > 10 µM | > 10 µM | 36.9 µM
CCCC(=O)NC[C@@H](OC(=O)/C=C/c1ccccc1)c1ccc(OC)c(OC)c1 | < 4.24 | > 10 µM | > 10 µM | 42.4 µM
O=C(/C=C/c1ccccc1)OC[C@@H](OC(=O)/C=C/c1ccccc1)c1ccc2ccccc2c1 | 20 | > 10 µM | > 10 µM | > 200 µM
O=C(/C=C/c1ccccc1)OC[C@H](OC(=O)/C=C/c1ccccc1)c1ccc2ccccc2c1 | < 18.1 | > 10 µM | 2.15 µM | 181 µM
COc1ccc([C@@H](CNC(=O)CCc2ccccc2)OC(=O)/C=C/c2ccccc2)cc1OC | < 4.43 | > 10 µM | > 10 µM | 44.3 µM
COc1ccc([C@H](O)CNC(=O)/C=C/c2ccccc2)cc1 | – | 6.82 µM | 7.26 µM | –
COc1ccc([C@@H](O)CNC(=O)/C=C/c2ccccc2)cc1 [AEGELINE] | – | > 10 µM | > 10 µM | –
COc1cc([C@@H]2c3cc4c(cc3[C@H](O)[C@H]3COC(=O)[C@H]23)OCO4)cc(OC)c1OC [PODOFILOX] | – | – | – | 5.74 µM
